pKi: −log10 of the molar value. Where two headings read alike, the source gives them in different places.
How the values were obtained:
Type in all cases: biochemical
[1] = target: MMP-10h (Homo sapiens (Human), UniProt P09238); test: Inhibition constant (Ki) on MMP-10h; conditions: human MMP-10
[2] = target: MMP-13h (Homo sapiens (Human), UniProt P45452); test: Inhibition constant (Ki) on MMP-13h; conditions: human MMP-13
Procedure, shortened: (§1)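 Protocol from prior literature applied; inhibition constants measured for human enzymes only.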

[3] = target: MMP-9h (Homo sapiens (Human), UniProt P14780); test: Inhibition constant (Ki) on MMP-9h; conditions: human MMP-9
Chain of MMP-9h (P14780 94-707): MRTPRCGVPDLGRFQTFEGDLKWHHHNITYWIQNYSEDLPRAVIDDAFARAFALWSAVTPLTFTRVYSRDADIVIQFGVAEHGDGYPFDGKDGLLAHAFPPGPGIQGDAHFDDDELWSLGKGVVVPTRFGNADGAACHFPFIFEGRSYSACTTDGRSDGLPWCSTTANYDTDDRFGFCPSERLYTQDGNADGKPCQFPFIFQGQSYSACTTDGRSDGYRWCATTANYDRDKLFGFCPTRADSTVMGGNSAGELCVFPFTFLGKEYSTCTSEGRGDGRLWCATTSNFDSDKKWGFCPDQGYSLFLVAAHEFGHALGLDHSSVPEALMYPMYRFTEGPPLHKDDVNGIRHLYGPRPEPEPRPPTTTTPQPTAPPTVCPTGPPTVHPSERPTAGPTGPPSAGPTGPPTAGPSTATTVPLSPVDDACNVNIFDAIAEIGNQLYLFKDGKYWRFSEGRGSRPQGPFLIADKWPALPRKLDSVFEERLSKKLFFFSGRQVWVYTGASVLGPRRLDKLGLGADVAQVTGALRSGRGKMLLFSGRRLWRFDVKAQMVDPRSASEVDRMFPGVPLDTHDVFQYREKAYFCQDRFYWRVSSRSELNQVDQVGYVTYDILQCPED
Procedure, shortened: as §1

[4] = target: MMP-14h (Homo sapiens (Human), UniProt P50281); test: Inhibition constant (Ki) on MMP-14h; conditions: human MMP-14
Procedure, shortened: as §1

[5] = target: MMP-3h (Homo sapiens (Human), UniProt P08254); test: Inhibition constant (Ki) on MMP-3h; conditions: human MMP-3
Chain of MMP-3h (P08254 100-477): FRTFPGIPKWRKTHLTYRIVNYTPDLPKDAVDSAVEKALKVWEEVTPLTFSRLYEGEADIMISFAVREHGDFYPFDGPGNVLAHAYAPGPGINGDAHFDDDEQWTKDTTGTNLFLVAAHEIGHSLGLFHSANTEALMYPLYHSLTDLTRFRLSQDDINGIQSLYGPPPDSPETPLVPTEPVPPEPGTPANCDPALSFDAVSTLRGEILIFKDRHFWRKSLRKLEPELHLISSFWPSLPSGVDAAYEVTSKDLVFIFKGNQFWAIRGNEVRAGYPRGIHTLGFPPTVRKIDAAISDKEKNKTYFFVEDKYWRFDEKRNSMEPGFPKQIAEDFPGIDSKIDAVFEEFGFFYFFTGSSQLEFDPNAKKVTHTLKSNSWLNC
Procedure, shortened: as §1

[6] = target: MMP-7h (Homo sapiens (Human), UniProt P09237); test: Inhibition constant (Ki) on MMP-7h; conditions: read-out: Ki MMP-7h; human MMP-7
Chain of MMP-7h (P09237 95-267): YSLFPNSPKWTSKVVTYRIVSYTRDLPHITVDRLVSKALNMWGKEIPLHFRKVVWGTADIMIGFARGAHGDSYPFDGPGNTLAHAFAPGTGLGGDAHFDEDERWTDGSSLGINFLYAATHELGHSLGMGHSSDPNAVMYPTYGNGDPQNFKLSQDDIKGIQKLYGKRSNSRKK
From the text: (§2) The inhibition constant Ki of these compounds has been determined according to the protocol described by Devel et al, 2006, J. Biol. Chem. (7).
(§3) In this table I and also in table II below, “h” corresponds to human. All of the compounds have therefore been evaluated on human MMPs.

[7] = target: MMP-1h (Homo sapiens (Human), UniProt P03956); test: Inhibition constant (Ki) on MMP-1h; conditions: read-out: Ki MMP-1h; human MMP-1
Chain of MMP-1h (P03956 100-469): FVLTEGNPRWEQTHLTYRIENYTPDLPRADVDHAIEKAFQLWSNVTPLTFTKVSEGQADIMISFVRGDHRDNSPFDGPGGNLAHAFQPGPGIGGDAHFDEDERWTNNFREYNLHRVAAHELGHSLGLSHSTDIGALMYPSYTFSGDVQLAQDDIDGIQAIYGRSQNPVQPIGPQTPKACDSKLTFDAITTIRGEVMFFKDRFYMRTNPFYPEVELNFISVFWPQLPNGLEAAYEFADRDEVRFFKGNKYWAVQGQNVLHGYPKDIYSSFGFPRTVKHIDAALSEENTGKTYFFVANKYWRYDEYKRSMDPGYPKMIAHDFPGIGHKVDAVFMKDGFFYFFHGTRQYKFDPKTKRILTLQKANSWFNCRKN
From the text: as §2, §3

[8] = target: MMP-2h (Homo sapiens (Human), UniProt P08253); test: Inhibition constant (Ki) on MMP-2h; conditions: human MMP-2
Chain of MMP-2h (P08253 110-660): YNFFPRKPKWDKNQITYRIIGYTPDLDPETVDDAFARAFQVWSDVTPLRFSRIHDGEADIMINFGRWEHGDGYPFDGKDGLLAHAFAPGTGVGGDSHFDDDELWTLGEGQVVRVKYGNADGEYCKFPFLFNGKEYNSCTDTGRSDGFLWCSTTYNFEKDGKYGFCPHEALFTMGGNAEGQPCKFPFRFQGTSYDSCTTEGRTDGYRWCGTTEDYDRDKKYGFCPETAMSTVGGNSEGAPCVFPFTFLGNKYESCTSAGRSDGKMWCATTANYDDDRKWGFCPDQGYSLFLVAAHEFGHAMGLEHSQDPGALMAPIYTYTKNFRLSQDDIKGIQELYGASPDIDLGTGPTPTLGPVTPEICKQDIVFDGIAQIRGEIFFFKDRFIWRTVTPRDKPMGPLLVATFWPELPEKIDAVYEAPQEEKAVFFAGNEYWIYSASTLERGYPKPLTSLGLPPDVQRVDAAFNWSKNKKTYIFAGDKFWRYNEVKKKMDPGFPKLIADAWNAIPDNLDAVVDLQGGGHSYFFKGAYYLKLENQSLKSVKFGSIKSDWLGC
Procedure, shortened: as §1

[9] = target: MMP-8h (Homo sapiens (Human), UniProt P22894); test: Inhibition constant (Ki) on MMP-8h; conditions: human MMP-8
Chain of MMP-8h (P22894 101-467): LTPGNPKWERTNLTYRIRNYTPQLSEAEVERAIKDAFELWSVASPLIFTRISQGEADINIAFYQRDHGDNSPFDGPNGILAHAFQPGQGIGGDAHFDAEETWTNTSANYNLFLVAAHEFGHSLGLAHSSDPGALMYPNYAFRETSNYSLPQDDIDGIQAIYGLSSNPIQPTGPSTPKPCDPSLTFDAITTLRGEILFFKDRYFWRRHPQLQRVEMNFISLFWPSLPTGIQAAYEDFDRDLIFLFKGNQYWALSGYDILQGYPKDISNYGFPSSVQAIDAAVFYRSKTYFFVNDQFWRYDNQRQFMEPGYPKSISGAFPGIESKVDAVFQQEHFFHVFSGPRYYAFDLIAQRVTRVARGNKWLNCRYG

[10] = target: MMP-12h (Homo sapiens (Human), UniProt P39900); test: Inhibition constant (Ki) on MMP-12h; conditions: human MMP-12
Chain of MMP-12h (P39900 106-470): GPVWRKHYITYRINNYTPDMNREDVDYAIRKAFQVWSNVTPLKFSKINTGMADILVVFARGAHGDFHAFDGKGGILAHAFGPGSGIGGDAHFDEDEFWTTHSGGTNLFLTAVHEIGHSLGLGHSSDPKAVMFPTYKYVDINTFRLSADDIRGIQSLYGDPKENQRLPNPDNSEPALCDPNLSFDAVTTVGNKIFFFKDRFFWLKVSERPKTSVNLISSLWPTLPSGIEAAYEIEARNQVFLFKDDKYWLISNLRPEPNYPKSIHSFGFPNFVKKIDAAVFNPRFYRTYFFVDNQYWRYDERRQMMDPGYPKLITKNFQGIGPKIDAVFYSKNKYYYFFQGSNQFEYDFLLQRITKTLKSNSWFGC

Chain of MMP-10h (P09238 99-476): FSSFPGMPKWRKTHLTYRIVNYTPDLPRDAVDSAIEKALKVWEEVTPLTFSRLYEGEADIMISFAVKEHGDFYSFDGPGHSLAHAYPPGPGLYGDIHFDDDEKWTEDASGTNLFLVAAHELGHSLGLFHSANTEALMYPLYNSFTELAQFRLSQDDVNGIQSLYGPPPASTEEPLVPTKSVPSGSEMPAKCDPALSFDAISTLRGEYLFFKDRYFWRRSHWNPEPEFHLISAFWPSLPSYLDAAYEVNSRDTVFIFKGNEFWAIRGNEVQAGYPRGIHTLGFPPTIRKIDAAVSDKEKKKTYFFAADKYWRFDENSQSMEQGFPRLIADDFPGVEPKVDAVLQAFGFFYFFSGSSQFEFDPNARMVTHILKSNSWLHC

| Structure (SMILES) | pKi ([1]; read-out: Ki MMP-10h) | pKi ([2]; read-out: Ki MMP-13h) | pKi ([3]; read-out: Ki MMP-9h) | pKi ([4]; read-out: Ki MMP-14h) | pKi ([5]; read-out: Ki MMP-3h) | pKi [6] | pKi [7] | pKi ([8]; read-out: Ki MMP-2h) | pKi ([9]; read-out: Ki MMP-8h) | pKi ([10]; read-out: Ki MMP-12h) | pKi [1] | pKi [2] | pKi [3] | pKi [4] | pKi [5] | pKi [8] | pKi [9] | pKi [10] |
| --- | --- | --- | --- | --- | --- | --- | --- | --- | --- | --- | --- | --- | --- | --- | --- | --- | --- | --- |
| NC(=O)[C@H](CCC(=O)O)NC(=O)[C@H](CCC(=O)O)NC(=O)CCc1cc(-c2ccccc2)no1 [Compound 14, (S)-5-amino-4-((S)-4-carboxy-2-(3-(3-phenylisoxazol-5-yl)propanamido)butanamido)-5-oxopentanoic acid] | < 6.00 | < 6.00 | < 6.00 | < 6.00 | < 5.00 | < 5.00 | < 5.00 | 6.12 | 6.95 | – | – | – | – | – | – | – | – | – |
| C[C@H](NC(=O)[C@H](CCC(=O)O)NC(=O)CCc1ccc(-c2cccs2)cc1)C(N)=O [Compound 85, (S)-5-((S)-1-amino-1-oxopropan-2-ylamino)-5-oxo-4-(3-(4-(thiophen-2-yl)phenyl)propanamido)pentanoic acid] | 6.08 | < 6.00 | < 5.30 | < 6.00 | < 5.00 | – | – | 6.46 | 7.21 | 7.59 | – | – | – | – | – | – | – | – |
| NC(=O)[C@H](Cc1c[nH]cn1)NC(=O)[C@H](CCC(=O)O)NC(=O)CCc1ccc(-c2cccs2)cc1 [Compound 86, (S)-5-((S)-1-amino-3-(1H-imidazol-4-yl)-1-oxopropan-2-ylamino)-5-oxo-4-(3-(4-(thiophen-2-yl)phenyl)propanamido)pentanoic acid] | < 6.00 | < 6.00 | < 6.00 | < 6.00 | < 5.00 | – | – | 6.43 | 7.20 | 7.47 | – | – | – | – | – | – | – | – |
| NC(=O)[C@H](CO)NC(=O)[C@H](CCC(=O)O)NC(=O)CCc1ccc(-c2cccs2)cc1 [Compound 87, (S)-5-((S)-1-amino-3-hydroxy-1-oxopropan-2-ylamino)-5-oxo-4-(3-(4-(thiophen-2-yl)phenyl)propanamido)pentanoic acid] | 6.13 | < 6.00 | < 6.00 | < 6.00 | < 5.00 | – | – | 6.83 | 7.33 | 7.79 | – | – | – | – | – | – | – | – |
| CC(C)C[C@H](NC(=O)[C@H](CCC(=O)O)NC(=O)CCc1ccc(-c2cccs2)cc1)C(N)=O [Compound 88, (S)-5-((S)-1-amino-4-methyl-1-oxopentan-2-ylamino)-5-oxo-4-(3-(4-(thiophen-2-yl)phenyl)propanamido)pentanoic acid] | < 6.00 | < 6.00 | < 6.00 | < 6.00 | < 5.00 | – | – | 6.53 | 7.14 | 7.49 | – | – | – | – | – | – | – | – |
| O=C(O)CC[C@H](NC(=O)CCc1ccc(-c2cccs2)cc1)C(=O)N1CCC[C@@H](CC(=O)O)C1 [Compound 89, (S)-5-((S)-3-(carboxymethyl)piperidin-1-yl)-5-oxo-4-(3-(4-(thiophen-2-yl)phenyl)propanamido)pentanoic acid] | < 5.30 | < 6.00 | < 6.00 | < 6.00 | < 4.00 | – | – | 6.32 | 7.03 | 6.91 | – | – | – | – | – | – | – | – |
| O=C(O)CC[C@H](NC(=O)CCc1ccc(-c2cccs2)cc1)C(=O)Nc1cccc(CC(=O)O)c1 [Compound 90, (S)-5-(3-(carboxymethyl)phenylamino)-5-oxo-4-(3-(4-(thiophen-2-yl)phenyl)propanamido)pentanoic acid] | 6.84 | 6.44 | 6.55 | 6.37 | < 6.00 | – | – | 6.94 | 7.74 | 8.10 | – | – | – | – | – | – | – | – |
| NC(=O)[C@H](CCC(=O)O)NC(=O)[C@H](CCC(=O)O)NC(=O)CCc1ccc(-c2ccc(-c3ccccc3)s2)cc1 [Compound 92, (S)-5-amino-4-((S)-4-carboxy-2-(3-(4-(5-phenylthiophen-2-yl)phenyl)propanamido)butanamido)-5-oxopentanoic acid] | 6.81 | 6.70 | 6.06 | < 6.00 | 6.97 | – | – | 6.55 | 6.42 | 8.59 | – | – | – | – | – | – | – | – |
| NC(=O)[C@H](CCC(=O)O)NC(=O)[C@H](CCC(=O)O)NC(=O)CCc1ccc(-c2ccc(-c3nc4ccccc4s3)s2)cc1 [Compound 93, (S)-5-amino-4-((S)-2-(3-(4-(5-(benzo[d]thiazol-2-yl)thiophen-2-yl)phenyl)propanamido)-4-carboxybutanamido)-5-oxopentanoic acid] | 7.41 | 7.48 | < 6.00 | < 5.30 | < 6.00 | – | – | < 6.00 | 6.51 | 7.77 | – | – | – | – | – | – | – | – |
| Cc1csc(-c2ccc(CCC(=O)N[C@@H](CCC(=O)O)C(=O)N[C@@H](CCC(=O)O)C(N)=O)cc2)c1 [Compound 94, (S)-5-amino-4-((S)-4-carboxy-2-(3-(4-(4-methylthiophen-2-yl)phenyl)propanamido)butanamido)-5-oxopentanoic acid] | < 6.00 | < 6.00 | < 6.00 | < 5.00 | < 6.00 | – | – | 6.06 | 6.63 | 7.66 | – | – | – | – | – | – | – | – |
| NC(=O)[C@H](CCC(=O)O)NC(=O)[C@H](CC(=O)O)NC(=O)CCc1ccc(-c2cc(-c3ccccc3)cs2)cc1 [Compound 100, (S)-5-amino-4-((S)-3-carboxy-2-(3-(4-(4-phenylthiophen-2-yl)phenyl)propanamido)propanamido)-5-oxopentanoic acid] | < 6.00 | 6.25 | < 6.00 | < 6.00 | < 6.00 | – | – | 6.06 | 6.25 | 7.82 | – | – | – | – | – | – | – | – |
| NC(=O)[C@H](CCC(=O)O)NC(=O)[C@H](CCCC(=O)O)NC(=O)CCc1ccc(-c2cc(-c3ccccc3)cs2)cc1 [Compound 102, (S)-6-((S)-1-amino-4-carboxy-1-oxobutan-2-ylamino)-6-oxo-5-(3-(4-(4-phenylthiophen-2-yl)phenyl)propanamido)hexanoic acid] | – | – | – | – | – | – | – | – | – | – | < 5.30 | 6.20 | < 5.30 | < 5.00 | < 5.00 | < 6.00 | < 5.30 | 7.25 |
| NC(=O)[C@H](CCC(=O)O)NC(=O)[C@H](Cc1cnc[nH]1)NC(=O)CCc1ccc(-c2cc(-c3ccccc3)cs2)cc1 [Compound 104, (S)-4-((S)-3-(1H-imidazol-5-yl)-2-(3-(4-(4-phenylthiophen-2-yl)phenyl)propanamido)propanamido)-5-amino-5-oxopentanoic acid] | < 5.30 | < 6.00 | < 5.30 | < 5.30 | < 5.00 | – | – | < 5.30 | < 6.00 | 7.40 | – | – | – | – | – | – | – | – |
| Cc1ccsc1-c1ccc(CCC(=O)N[C@@H](CCC(=O)O)C(=O)N[C@@H](CCC(=O)O)C(N)=O)cc1 [Compound 107, (S)-5-amino-4-((S)-4-carboxy-2-(3-(4-(3-methylthiophen-2-yl)phenyl)propanamido)butanamido)-5-oxopentanoic acid] | < 6.00 | < 6.00 | < 5.00 | < 5.30 | < 5.00 | – | – | < 6.00 | 6.12 | 7.08 | – | – | – | – | – | – | – | – |
